In US8183215B2, “Method of administering oral flora-improving agent, antibacterial agent and growth promoter” (Megmilk Snow Brand Co., Ltd., priority 2004, dated 2012):
Bridge positions count the residues as written; N and C are the ends. Square brackets hold non-standard residues; d marks the D form. Peptide text beside a SMILES is read from it. * marks the point of attachment. Ileψ(thiazoline)Cys = CC[C@H](C)[C@H](N)C1=N[C@H](C(=O)*)CS1; dOrn = NCCC[C@@H](N)C(=O)O

Columns and labels:
Assay in all cases: Radial Diffusion Assay, antibacterial / growth promoting activity
Assay type in all cases: cell-based
[1] = tested on: Actinomyces naeslundii JCM8349 strain; conditions: for antibacterial activity / growth promoting activity: Actinomyces naeslundii JCM8349, 5 μl sample in hole, zone measured after 18 hours at 37° C.; for antibacterial and growth promoting activity, result in words: Actinomyces naeslundii JCM8349 strain
Protocol: (§1) The influences of gangliosides on oral bacteria were examined by Radial Diffusion Assay. That is, 3 mg of Tryptic Soy medium (Difco), 20 μl of Tween 20, and 100 mg of agarose were dissolved in 10 ml of ultrapure water and sterilized. 100 μl of solution of bacteria having an OD620 of 0.2 (5×10^7 cfu/ml) was added to the sterilized medium, and then the resultant mixture was dispensed in Petri dishes and allowed to solidify at room temperature. Each solidified medium was provided with a hole of about 2.5 mm in diameter and 5 μl of each solution of ganglioside GM3 or ganglioside GD3 derived from milk for the evaluation of the antibacterial effect was added to the hole and incubated at 37° C. for 1 hour. Further, a sterilized medium obtained by dissolving 0.6 g of Tryptic Soy medium and 100 mg of agarose in 10 ml of ultrapure water was superposed on the solidified medium and left to solidify at room temperature, and then stationary cultured in an incubator at 37° C. After 18 hours, the diameter of a clear zone formed around the hole formed in the medium was measured. A length obtained by subtracting the diameter (mm) of the hole formed in the medium from the diameter (mm) of a clear zone formed by inhibition of the growth of the bacterium was defined as antibacterial activity. On the other hand, when colonies of the bacterium were formed around the hole in the medium and an opaque zone was observed, it was assumed that growth promotion took place, and a length obtained by subtracting the diameter (mm) of the hole formed in the medium from the diameter (mm) of an opaque zone was defined as growth promotion activity. The bacterial strains subjected to the test include Streptococcus sobrinus 6715 strain, Streptococcus anginosus ATCC33397 strain, and Staphylococcus aureus Cowan I strain as harmful oral bacteria; Streptococcus agalactiae ATCC46448 strain and Actinomyces naeslundii JCM8349 strain as habitant oral bacteria; and Streptococcus mitis GTC495 strain, Streptococcus mitis ATCC6249 strain, and Streptococcus mitis ATCC903 strain as useful oral bacteria.
(§2) Bacitracin, which is an antibacterial component separated from Bacillus subtilis, was used as a positive control and a sample showing an antibacterial activity of 2.0 mm or more was judged to be positive (having an antibacterial activity). As for the growth promoting effect, a sample having a growth promoting activity of 1.0 mm or more was judged to be positive (having a growth promoting activity).

[2] = tested on: Staphylococcus aureus Cowan I strain; conditions: 5 μl sample in hole, zone measured after 18 hours at 37° C.
Protocol: as §1, §2

[3] = tested on: Streptococcus agalactiae ATCC46448 strain; conditions: for antibacterial activity / growth promoting activity: Streptococcus agalactiae ATCC46448, 5 μl sample in hole, zone measured after 18 hours at 37° C.; for antibacterial and growth promoting activity, result in words: Streptococcus agalactiae ATCC46448 strain
Protocol: as §1, §2

[4] = tested on: Streptococcus anginosus ATCC33397 strain; conditions: 5 μl sample in hole, zone measured after 18 hours at 37° C.
Protocol: as §1, §2

[5] = tested on: Streptococcus mitis ATCC6249 strain; conditions: 5 μl sample in hole, zone measured after 18 hours at 37° C.
Protocol: as §1, §2

[6] = tested on: Streptococcus mitis ATCC903 strain; conditions: 5 μl sample in hole, zone measured after 18 hours at 37° C.
Protocol: as §1, §2

[7] = tested on: Streptococcus mitis GTC945; conditions: 5 μl sample in hole, zone measured after 18 hours at 37° C.
Protocol: as §1, §2

[8] = tested on: Streptococcus sobrinus 6715 strain; conditions: 5 μl sample in hole, zone measured after 18 hours at 37° C.
Protocol: as §1, §2

Compound	antibacterial activity / growth promoting activity [1]	antibacterial activity / growth promoting activity [2]	antibacterial activity / growth promoting activity [3]	antibacterial activity / growth promoting activity [4]	antibacterial activity / growth promoting activity [5]	antibacterial activity / growth promoting activity [6]	antibacterial activity / growth promoting activity [7]	antibacterial activity / growth promoting activity [8]	antibacterial and growth promoting activity, result in words [1]	antibacterial and growth promoting activity, result in words [3]
CC[C@H](C)[C@H](N)C1=N[C@H](C(=O)N[C@@H](CC(C)C)C(=O)N[C@H](CCC(=O)O)C(=O)N[C@H](C(=O)N[C@H]2CCCCNC(=O)[C@H](CC(N)=O)NC(=O)[C@@H](CC(=O)O)NC(=O)[C@H](Cc3cnc[nH]3)NC(=O)[C@@H](Cc3ccccc3)NC(=O)[C@H]([C@@H](C)CC)NC(=O)[C@@H](CCCN)NC2=O)[C@@H](C)CC)CS1 [Bacitracin, reference compound] ({Ileψ(thiazoline)Cys}-L[dE]IK[dOrn]I[dF]H[dD]N; lactam 4-C)	+ (Having an antibacterial activity)	+ (Having an antibacterial activity)	+ (Having an antibacterial activity)	+ (Having an antibacterial activity)	+ (Having an antibacterial activity)	+ (Having an antibacterial activity)	+ (Having an antibacterial activity)	+ (Having an antibacterial activity)	–	–
ganglioside GM3	− (Having no antibacterial activity)	+ (Having an antibacterial activity)	− (Having no antibacterial activity)	+ (Having an antibacterial activity)	* (Having a growth promoting activity)	* (Having a growth promoting activity)	* (Having a growth promoting activity)	+ (Having an antibacterial activity)	neither an antibacterial activity nor a growth promoting activity	neither an antibacterial activity nor a growth promoting activity
ganglioside GD3	− (Having no antibacterial activity)	+ (Having an antibacterial activity)	− (Having no antibacterial activity)	+ (Having an antibacterial activity)	* (Having a growth promoting activity)	* (Having a growth promoting activity)	* (Having a growth promoting activity)	+ (Having an antibacterial activity)	neither an antibacterial activity nor a growth promoting activity	neither an antibacterial activity nor a growth promoting activity
